# Test results reported in ChEMBL document CHEMBL3351515, “α-Hexylcinnamaldehyde inhibits the genotoxicity of environmental pollutants in the bacterial reverse mutation assay” (2014).
# Assays:
# Escherichia coli [1] = test: Antimutagenic activity against 2-aminoanthracene-induced revertant colonies in Escherichia coli WP2uvrA assessed as number of revertant colonies measured cotreatment at 90 uM (reference value: 366 +/- 10.3) in presence of mammalian S9 fraction; assay type: functional
# Salmonella typhimurium [2] = test: Antimutagenic activity against sodium azide-induced revertant colonies in Salmonella typhimurium TA100 assessed as number of revertant colonies measured pretreatment at 18 uM (reference value: 1968 +/- 46.9) in absence of mammalian S9 fraction; assay type: functional, Salmonella enterica subsp. enterica serovar Typhimurium
# Escherichia coli [3] = test: Antimutagenic activity against 2-aminoanthracene-induced revertant colonies in Escherichia coli WP2uvrA assessed as number of revertant colonies measured pretreatment at 90 uM (reference value: 178.7 +/- 11.8) in presence of mammalian S9 fraction; assay type: functional
# Escherichia coli [4] = test: Antimutagenic activity against 2-aminoanthracene-induced revertant colonies in Escherichia coli WP2uvrA assessed as number of revertant colonies measured pretreatment at 18 uM (reference value: 178.7 +/- 11.8) in presence of mammalian S9 fraction; assay type: functional
# Escherichia coli [5] = test: Antimutagenic activity against methyl methansulfonate-induced revertant colonies in Escherichia coli WP2uvrA assessed as number of revertant colonies measured pretreatment at 900 uM (reference value: 466.7 +/- 40.4) in absence of mammalian S9 fraction; assay type: functional
# Salmonella typhimurium [6] = test: Antimutagenic activity against 2-aminoanthracene-induced revertant colonies in Salmonella typhimurium TA100 assessed as number of revertant colonies measured cotreatment at 900 uM (reference value: 457.9 +/- 16.74) in presence of mammalian S9 fraction; assay type: functional, Salmonella enterica subsp. enterica serovar Typhimurium
# Salmonella typhimurium [7] = test: Antimutagenic activity against sodium azide-induced revertant colonies in Salmonella typhimurium TA100 assessed as number of revertant colonies measured pretreatment at 90 uM (reference value: 1968 +/- 46.9) in absence of mammalian S9 fraction; assay type: functional, Salmonella enterica subsp. enterica serovar Typhimurium
# Escherichia coli [8] = test: Antimutagenic activity against 2-aminoanthracene-induced revertant colonies in Escherichia coli WP2uvrA assessed as number of revertant colonies measured post-treatment at 900 uM (reference value: 308 +/- 4) in presence of mammalian S9 fraction; assay type: functional
# Salmonella typhimurium [9] = test: Antimutagenic activity against sodium azide-induced revertant colonies in Salmonella typhimurium TA100 assessed as number of revertant colonies measured cotreatment at 180 uM (reference value: 1588 +/- 55.6) in absence of mammalian S9 fraction; assay type: functional, Salmonella enterica subsp. enterica serovar Typhimurium
# Salmonella typhimurium [10] = test: Antimutagenic activity against sodium azide-induced revertant colonies in Salmonella typhimurium TA100 assessed as number of revertant colonies measured post-treatment at 180 uM (reference value: 1909 +/- 29.7) in absence of mammalian S9 fraction; assay type: functional, Salmonella enterica subsp. enterica serovar Typhimurium
# Salmonella typhimurium [11] = test: Antimutagenic activity against 2-aminoanthracene-induced revertant colonies in Salmonella typhimurium TA100 assessed as number of revertant colonies measured post-treatment at 18 uM (reference value: 642.7 +/- 2.7) in presence of mammalian S9 fraction; assay type: functional, Salmonella enterica subsp. enterica serovar Typhimurium
# Salmonella typhimurium [12] = test: Antimutagenic activity against 2-aminoanthracene-induced revertant colonies in Salmonella typhimurium TA100 assessed as number of revertant colonies measured cotreatment at 9 uM (reference value: 457.9 +/- 16.74) in presence of mammalian S9 fraction; assay type: functional, Salmonella enterica subsp. enterica serovar Typhimurium
# Salmonella typhimurium [13] = test: Antimutagenic activity against 1-nitropyrene-induced revertant colonies in Salmonella typhimurium TA98 assessed as inhibition of mutagenicity measured at 900 uM; assay type: functional, Salmonella enterica subsp. enterica serovar Typhimurium; conditions: Salmonella enterica
# Salmonella typhimurium [14] = test: Antimutagenic activity against 2-aminoanthracene-induced revertant colonies in Salmonella typhimurium TA100 assessed as number of revertant colonies measured post-treatment at 90 uM (reference value: 642.7 +/- 2.7) in presence of mammalian S9 fraction; assay type: functional, Salmonella enterica subsp. enterica serovar Typhimurium
# Salmonella typhimurium [15] = test: Antimutagenic activity against 2-aminoanthracene-induced revertant colonies in Salmonella typhimurium TA100 assessed as number of revertant colonies measured post-treatment at 180 uM (reference value: 642.7 +/- 2.7) in presence of mammalian S9 fraction; assay type: functional, Salmonella enterica subsp. enterica serovar Typhimurium
# Salmonella typhimurium [16] = test: Antimutagenic activity against 2-nitrofluorene-induced revertant colonies in Salmonella typhimurium TA98 assessed as inhibition of mutagenicity measured at 90 to 180 uM; assay type: functional, Salmonella enterica subsp. enterica serovar Typhimurium
# Salmonella typhimurium [17] = test: Antimutagenic activity against 2-aminoanthracene-induced revertant colonies in Salmonella typhimurium TA100 assessed as number of revertant colonies measured post-treatment at 9 uM (reference value: 642.7 +/- 2.7) in presence of mammalian S9 fraction; assay type: functional, Salmonella enterica subsp. enterica serovar Typhimurium
# Salmonella typhimurium [18] = test: Antimutagenic activity against sodium azide-induced revertant colonies in Salmonella typhimurium TA100 assessed as number of revertant colonies measured post-treatment at 18 uM (reference value: 1909 +/- 29.7) in absence of mammalian S9 fraction; assay type: functional, Salmonella enterica subsp. enterica serovar Typhimurium
# Salmonella typhimurium [19] = test: Antimutagenic activity against 2-nitrofluorene-induced revertant colonies in Salmonella typhimurium TA98 assessed as inhibition of mutagenicity measured at 9 to 18 uM; assay type: functional, Salmonella enterica subsp. enterica serovar Typhimurium
# Escherichia coli [20] = test: Antimutagenic activity against 2-aminoanthracene-induced revertant colonies in Escherichia coli WP2uvrA assessed as number of revertant colonies measured post-treatment at 18 uM (reference value: 308 +/- 4) in presence of mammalian S9 fraction; assay type: functional
# Salmonella typhimurium [21] = test: Antimutagenic activity against 2-aminoanthracene-induced revertant colonies in Salmonella typhimurium TA100 assessed as number of revertant colonies measured post-treatment at 900 uM (reference value: 642.7 +/- 2.7) in presence of mammalian S9 fraction; assay type: functional, Salmonella enterica subsp. enterica serovar Typhimurium
# Salmonella typhimurium [22] = test: Antimutagenic activity against 2-nitrofluorene-induced revertant colonies in Salmonella typhimurium TA98 assessed as inhibition of mutagenicity measured at 900 uM; assay type: functional, Salmonella enterica subsp. enterica serovar Typhimurium; conditions: Salmonella enterica
# Salmonella typhimurium [23] = test: Antimutagenic activity against 4-nitroquinoline N-oxide-induced revertant colonies in Salmonella typhimurium TA98 assessed as inhibition of mutagenicity measured at 90 to 180 uM; assay type: functional, Salmonella enterica subsp. enterica serovar Typhimurium
# Salmonella typhimurium [24] = test: Antimutagenic activity against sodium azide-induced revertant colonies in Salmonella typhimurium TA100 assessed as number of revertant colonies measured pretreatment at 180 uM (reference value: 1968 +/- 46.9) in absence of mammalian S9 fraction; assay type: functional, Salmonella enterica subsp. enterica serovar Typhimurium
# Escherichia coli [25] = test: Antimutagenic activity against methyl methansulfonate-induced revertant colonies in Escherichia coli WP2uvrA assessed as number of revertant colonies measured pretreatment at 18 uM (reference value: 466.7 +/- 40.4) in absence of mammalian S9 fraction; assay type: functional
# Escherichia coli [26] = test: Antimutagenic activity against 2-aminoanthracene-induced revertant colonies in Escherichia coli WP2uvrA assessed as number of revertant colonies measured pretreatment at 900 uM (reference value: 178.7 +/- 11.8) in presence of mammalian S9 fraction; assay type: functional
# Escherichia coli [27] = test: Antimutagenic activity against methyl methansulfonate-induced revertant colonies in Escherichia coli WP2uvrA assessed as number of revertant colonies measured pretreatment at 180 uM (reference value: 466.7 +/- 40.4) in absence of mammalian S9 fraction; assay type: functional
# Escherichia coli [28] = test: Antimutagenic activity against 2-aminoanthracene-induced revertant colonies in Escherichia coli WP2uvrA assessed as number of revertant colonies measured cotreatment at 180 uM (reference value: 366 +/- 10.3) in presence of mammalian S9 fraction; assay type: functional
# Escherichia coli [29] = test: Antimutagenic activity against methyl methansulfonate-induced revertant colonies in Escherichia coli WP2uvrA assessed as number of revertant colonies measured post-treatment at 900 uM (reference value: 726.7 +/- 12.7) in absence of mammalian S9 fraction; assay type: functional
structure (smiles),measurement,setting,value
CCCCCC/C(C=O)=C\c1ccccc1,Activity,Escherichia coli [1],334.3
same,Activity,Salmonella typhimurium [2],1861
same,Activity,Escherichia coli [3],152.3
same,Activity,Escherichia coli [4],166.7
same,Activity,Escherichia coli [5],365.3
same,Activity,Salmonella typhimurium [6],347
same,Activity,Salmonella typhimurium [7],1801
same,Activity,Escherichia coli [8],304.3
same,Activity,Salmonella typhimurium [9],1457
same,Activity,Salmonella typhimurium [10],1771
same,Activity,Salmonella typhimurium [11],530.7
same,Activity,Salmonella typhimurium [12],449.3
same,inhibition at 900 µM,Salmonella typhimurium [13],> 40%
same,Activity,Salmonella typhimurium [14],530
same,Activity,Salmonella typhimurium [15],520
same,inhibition (INH),Salmonella typhimurium [16],25%
same,Activity,Salmonella typhimurium [17],637.3
same,Activity,Salmonella typhimurium [18],1867
same,inhibition (INH),Salmonella typhimurium [19],<25%
same,Activity,Escherichia coli [20],292
same,Activity,Salmonella typhimurium [21],481.3
same,inhibition at 900 µM,Salmonella typhimurium [22],> 40%
same,inhibition (INH),Salmonella typhimurium [23],25%
same,Activity,Salmonella typhimurium [24],1797
same,Activity,Escherichia coli [25],451.3
same,Activity,Escherichia coli [26],141.3
same,Activity,Escherichia coli [27],376
same,Activity,Escherichia coli [28],318.7
same,Activity,Escherichia coli [29],474
